Among the data in article PMC7497253, “Structure‐Based Macrocyclization of Substrate Analogue NS2B‐NS3 Protease Inhibitors of Zika, West Nile and Dengue viruses” (Chemmedchem, 2020) are Ki values, retold here.

Holding throughout (assay type): biochemical
Assay [1] deals with T1, bZiPro (unlinked binary Zika virus NS2B-NS3 protease) (Zika virus, UniProt A0A024B7W1).
T1 construct: The viral protease consists of the N‐terminal third of the nonstructural protein NS3; the NS2B construct ends at Glu96; His6 (cleaved yes); made in house
As to the kind of experiment: Enzyme kinetics with bZiPro, fluorogenic substrate Phac-Leu-Lys-Lys-Arg-AMC. The method, then: (§1) Enzyme kinetics. Measurements with bZiPro15 and the covalent WNV NS2B‐NS3 construct^10 were performed at room temperature in black 96 well plates using a Fluoroskan Ascent® plate reader (Thermo Fisher Scientific, Vantaa, Finland) with λ ex at 355 nm and λ em at 460 nm. Each well contained 125 μL inhibitor dissolved in buffer (for bZiPro: 20 mM Tris×HCl pH 8.5, 2 mM DTT, 10 w/v glycerol and 0.01 w/v Triton X‐100;18 for WNV protease: 100 mM Tris×HCl pH 8.5, containing 32 w/v glycerol and 0.01 w/v Triton X‐10012) and 50 μL substrate Phac‐Leu‐Lys‐Lys‐Arg‐AMC12 (40 μM for bZiPro (10 μM in assay, K M=1.4 μM) and 400 μM for the WNV protease (100 μM in assay, K M=53 μM)). The measurements were started by addition of 25 μL enzyme solution (16 nM for bZiPro (2.0 nM in assay), and 64 nM for the WNV protease (8.0 nM in assay)). Data points were collected each 15 s over a period of 10 min using eight different inhibitor concentrations. […] The K i values and their standard deviation were obtained from at least three independent measurements.(1) vi=Vmax×[S]/KM1+[I]/Ki+[S]
The constants K M and V max were obtained from independent measurements with six different substrate concentrations in absence of inhibitor. For inhibitor 10 with bZiPro, additional measurements at three substrate concentrations (10, 5, and 2.5 μM in assay) were performed to obtain the Dixon plot shown in Figure 4.

Assay [2] concerns the target T2, WNV NS2B-NS3 protease (WNV-Pro) (West Nile virus, UniProt P06935).
T2 construct: NS3 has to form a complex with its cofactor NS2B to achieve proteolytic activity; The viral protease consists of the N‐terminal third of the nonstructural protein NS3
In words: Enzyme kinetics with the covalent WNV NS2B-NS3 construct, substrate Phac-Leu-Lys-Lys-Arg-AMC. The procedure: as §1

Assay [3] addresses T3, bD4Pro (unlinked binary dengue-4 virus NS2B-NS3 protease) (Dengue virus type 4, UniProt Q2YHF2).
T3 construct: The viral protease consists of the N‐terminal third of the nonstructural protein NS3; NS3 has to form a complex with its cofactor NS2B to achieve proteolytic activity; His6 (cleaved yes); made in house
T3 sequence (Q2YHF2 1475-1652 limits assumed): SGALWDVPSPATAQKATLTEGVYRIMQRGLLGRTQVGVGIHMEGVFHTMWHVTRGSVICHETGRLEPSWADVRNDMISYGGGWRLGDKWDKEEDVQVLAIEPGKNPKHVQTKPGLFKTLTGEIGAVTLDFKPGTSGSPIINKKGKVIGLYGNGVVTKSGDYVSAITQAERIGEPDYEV
T3 sequence (Q2YHF2 1397-1436 limits assumed): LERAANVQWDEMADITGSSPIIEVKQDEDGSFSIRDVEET
As to the kind of experiment: Enzyme kinetics with bD4Pro, substrate Benzoyl-Nle-Lys-Arg-Arg-AMC. The method, then:
Measurements with the dengue 4 virus protease construct (bD4Pro; expressed and purified by a similar methodology as described for bZiPro15 with slight modification of using Tobacco Etch Virus (TEV) protease instead of thrombin for His6‐tag cleavage) were performed in a Cytation 3 Mulitmode plate reader with λ ex at 380 nm and λ em at 460 nm. Assays were carried out as triplicate at 37 °C. Before measurement, the protease (final assay concentration 3 nM) was preincubated with varying concentrations of inhibitors in assay buffer (20 mM Tris pH 8.5, 10 % glycerol, 0.01 % Triton X‐100) for 1 h at room temperature in Corning black clear bottom 96‐well plates. The reaction was started by addition of the substrate Benzoyl‐Nle‐Lys‐Arg‐Arg‐AMC (final assay concentration 50 μM, K M=48.4 μM). Fluorescent readings were recorded at 1‐minute intervals over 10 minutes. The steady‐state rates v i in presence of inhibitor were calculated from the slopes of the progress curves using Graph Pad Prism. The v i values were fitted to Equation (2) as function of the inhibitor concentration [I] providing the IC50 values, where v 0 is the rate in absence of inhibitor and s a slope factor. The obtained IC50 values were finally converted into K i values by the Cheng‐Prusoff Equation (2).(2) vi=v0/1+I/IC50^s (3) Ki=IC50/1+S/KM

[4] abbreviates: K i against bZiPro / ZIKV protease, value given in running text.
Setting [5] is: K i bZiPro, mean±SD of at least three independent measurements, substrate 10 μM in assay, room temperature, pH 8.5.
The mark [6] stands for this setting: mean±SD of at least three independent measurements, substrate 10 μM in assay, room temperature, pH 8.5, read-out: K i bZiPro.
[7] abbreviates: mean±SD of at least three independent measurements, substrate 100 μM in assay, room temperature, pH 8.5, read-out: K i WNV-Pro.
[8] abbreviates: mean±SD of at least three independent measurements, 37 °C, IC50 converted into K i by Cheng-Prusoff, read-out: K i bD4Pro.

SMILES strings stand for the structures. Read-outs that look alike come from different tables or passages of the source. Starred links: 1 amine or outer side, 2 acyl side, 3 side chain; linkers in the order of their positions; H or OH if unused. Positions of bridges follow the written chain, without caps; N, C: chain ends. Non-standard residues stand in square brackets, D forms with d. Residues, ends and D or L forms follow the SMILES beside them. dεLys(Nα-amidino) = N=C(N)N[C@H](CCCCN[*:1])C(=O)[*:2]; NHCH2(1,3-C6H4)CH2CO = O=C(Cc1cccc(CN[*:1])c1)[*:2]; βAla = NCCC(=O)O

T1 sequence (A0A024B7W1 1503-1680 limits assumed): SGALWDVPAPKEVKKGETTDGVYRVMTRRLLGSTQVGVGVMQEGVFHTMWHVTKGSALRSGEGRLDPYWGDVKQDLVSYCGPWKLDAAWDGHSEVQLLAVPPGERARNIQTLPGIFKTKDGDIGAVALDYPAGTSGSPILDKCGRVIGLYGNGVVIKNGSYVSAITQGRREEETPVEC
T1 sequence (A0A024B7W1 1425-1464 limits assumed): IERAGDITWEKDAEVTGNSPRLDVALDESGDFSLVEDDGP
T2 sequence (P06935 1424-1463): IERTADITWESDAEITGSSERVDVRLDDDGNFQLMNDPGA
T2 sequence (P06935 1502-1679): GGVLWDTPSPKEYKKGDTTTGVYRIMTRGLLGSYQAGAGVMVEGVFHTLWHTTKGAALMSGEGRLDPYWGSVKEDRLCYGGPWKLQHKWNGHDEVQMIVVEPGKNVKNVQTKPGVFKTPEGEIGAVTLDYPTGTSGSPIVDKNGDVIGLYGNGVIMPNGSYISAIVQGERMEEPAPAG

In assay [1] (setting [4]), `N=C(N)N[C@H]1CC[C@H](CNC(=O)[C@H](CCCCN)NC(=O)[C@H](CCCCN)NC(=O)Cc2ccc(Cl)c(Cl)c2)CC1` [Inhibitor 1, 3,4‐dichloro‐Phac‐Lys‐Lys‐GCMA, reference compound] yielded a Ki of 14 nM.
For `N=C(N)N[C@H]1CCCCNC(=O)[C@H](CCCCN)NC(=O)[C@H](CCCCN)NC(=O)Cc2ccc(cc2)CNC(=O)CCCNC1=O` [Inhibitor 2], the Ki was found to be 91.8 ± 6 nM in assay [1] (setting [5]), 6300 ± 490 nM in assay [2] and 11000 ± 1000 nM in assay [3].
On to `N=C(N)N[C@H]1CCCNC(=O)[C@H](CCCCN)NC(=O)[C@H](CCCCN)NC(=O)Cc2ccc(cc2)CNC(=O)CCCNC1=O` [Inhibitor 3], for which the values for the Ki in assay [1] (setting [5]), in assay [2] and in assay [3] were 846 ± 111 nM, 27800 ± 4400 nM and 117000 ± 5000 nM, respectively.
For the molecule `N=C(N)N[C@@H]1CCCCNC(=O)[C@H](CCCCN)NC(=O)[C@H](CCCCN)NC(=O)Cc2ccc(cc2)CNC(=O)CCCNC1=O` [Inhibitor 4], the values for the Ki in assay [1] (setting [5]), in assay [2] and in assay [3] were 70.1 ± 9.2 nM, 4970 ± 500 nM and 4730 ± 500 nM, respectively.
For `N=C(N)N[C@@H]1CCCNC(=O)[C@H](CCCCN)NC(=O)[C@H](CCCCN)NC(=O)Cc2ccc(cc2)CNC(=O)CCCNC1=O` [Inhibitor 5] the same measures were 3610 ± 1330 nM, 22000 ± 4000 nM and 60500 ± 5700 nM.
With `NCCCC[C@@H]1NC(=O)Cc2ccc(cc2)CNC(=O)CCCNC(=O)[C@H](N)CCCCNC(=O)[C@H](CCCCN)NC1=O` [Inhibitor 6], the Ki was determined as 24700 ± 7200 nM in assay [1] (setting [6]), 68100 ± 5000 nM in assay [2] (setting [7]) and 94500 ± 11600 nM in assay [3] (setting [8]).
For `NCCCC[C@@H]1NC(=O)Cc2ccc(cc2)CNC(=O)CCCNC(=O)[C@H](N)CCCNC(=O)[C@H](CCCCN)NC1=O` [Inhibitor 7] the same measures were 13200 ± 1700 nM, 31700 ± 3600 nM and 30600 ± 3900 nM.
With `N=C(N)N[C@@H]1CCCCNC(=O)[C@H](CCCCN)NC(=O)[C@H](CCCCN)NC(=O)Cc2cccc(c2)CNC(=O)CCCNC1=O` [Inhibitor 8], the Ki in assay [1] (setting [5]) was determined as 4.33 ± 0.35 nM; in assay [2], 702 ± 83 nM; in assay [3], 286 ± 9 nM.
For `N=C(N)N[C@@H]1CCCCNC(=O)[C@H](CCCCN)NC(=O)[C@H](CCCCN)NC(=O)Cc2cccc(c2)CNC(=O)CCNC1=O` [Inhibitor 9] the same measures were 3.88 ± 0.81 nM, 374 ± 44 nM and 182 ± 5 nM.
The corresponding values for `N=C(N)N[C@@H]1CCCCNC(=O)[C@H](CCCCN)NC(=O)[C@H](CCCCN)NC(=O)Cc2cccc(c2)CNC1=O` [Inhibitor 12] are 37.3 ± 4.7 nM, 15300 ± 800 nM and 1280 ± 50 nM.
Take `N=C(N)N[C@@H]1CCCCNC(=O)[C@H](CCCCN)NC(=O)[C@H](CCCCN)NC(=O)Cc2cccc(c2)NC(=O)CCNC1=O` [Inhibitor 13]: the Ki in assay [1] (setting [4]) amounted to 80 nM; in assay [1] (setting [5]) it was 80.2 ± 9.7 nM; in assay [2] it was 4280 ± 310 nM; in assay [3], 7960 ± 550 nM.
As to `N=C(N)N[C@@H]1CCCCNC(=O)[C@H](CCCCN)NC(=O)[C@H](CCCCN)NC(=O)Cc2cccc(c2)NC(=O)CCCNC1=O` [Inhibitor 14], the Ki in assay [1] (setting [5]) stood at 106 ± 29 nM; in assay [2] it was 16500 ± 4600 nM; in assay [3], 5800 ± 360 nM.
As for `C[C@@H]1NC(=O)[C@H](NC(=N)N)CCCCNC(=O)[C@H](CCCCN)NC(=O)[C@H](CCCCN)NC(=O)Cc2cccc(c2)CNC1=O` [Inhibitor 15], the Ki was 18.2 ± 5.1 nM in assay [1] (setting [5]), 1390 ± 320 nM in assay [2] and 3600 ± 380 nM in assay [3].
The corresponding values for `C[C@H]1NC(=O)[C@H](NC(=N)N)CCCCNC(=O)[C@H](CCCCN)NC(=O)[C@H](CCCCN)NC(=O)Cc2cccc(c2)CNC1=O` [Inhibitor 16] are 3.52 ± 1.09 nM, 237 ± 21 nM and 125 ± 4 nM.
The corresponding values for `CC(C)[C@@H]1NC(=O)[C@H](NC(=N)N)CCCCNC(=O)[C@H](CCCCN)NC(=O)[C@H](CCCCN)NC(=O)Cc2cccc(c2)CNC1=O` [Inhibitor 17] are 42.8 ± 2.2 nM, 6710 ± 320 nM and 2810 ± 180 nM.
For `CC(C)[C@H]1NC(=O)[C@H](NC(=N)N)CCCCNC(=O)[C@H](CCCCN)NC(=O)[C@H](CCCCN)NC(=O)Cc2cccc(c2)CNC1=O` [Inhibitor 18] the same measures were 7.74 ± 0.66 nM, 439 ± 28 nM and 486 ± 27 nM.
With `N=C(N)N[C@@H]1CCCCNC(=O)[C@H](CCCCN)NC(=O)[C@H](CCCCN)NC(=O)Cc2cccc(c2)CNC(=O)[C@H]2CCCN2C1=O` [Inhibitor 19], the Ki was 17.7 ± 0.5 nM in assay [1] (setting [5]), 850 ± 68 nM in assay [2] and 4080 ± 260 nM in assay [3].
For `NCCCC[C@@H]1NC(=O)Cc2cccc(c2)CNC(=O)CNC(=O)[C@H](N)CCCCNC(=O)[C@H](CCCCN)NC1=O` [Inhibitor 20] (H-[dK]G[NHCH2(1,3-C6H4)CH2CO]KK; lactam 1-C) the same measures were 23000 nM, 99000 nM and 282000 nM.
For `NCCCC[C@@H]1NC(=O)Cc2cccc(c2)CNC(=O)CNC(=O)[C@H](NC(N)=O)CCCCNC(=O)[C@H](CCCCN)NC1=O` [Inhibitor 21] the same measures were 12000 nM, 68000 nM and 135000 nM.
For `N=C(N)N[C@@H]1CCCCNC(=O)[C@H](CCCCN)NC(=O)[C@H](CCCCN)NC(=O)CCCNC(=O)CNC1=O` [Inhibitor 22] the same measures were 124 ± 8 nM, 6700 ± 520 nM and 6090 ± 470 nM.
Take `N=C(N)N[C@@H]1CCCCNC(=O)[C@H](CCCCN)NC(=O)[C@H](CCCCN)NC(=O)CCCCNC(=O)CNC1=O` [Inhibitor 23]: the Ki in assay [1] (setting [5]) amounted to 16.7 ± 3.4 nM; in assay [2], 1220 ± 20 nM; in assay [3], 1120 ± 50 nM.
For `N=C(N)N[C@@H]1CCCCNC(=O)[C@H](CCCCN)NC(=O)[C@H](CCCCN)NC(=O)CCCCCNC(=O)CNC1=O` [Inhibitor 24] the same measures were 15.4 ± 2.6 nM, 973 ± 173 nM and 1990 ± 90 nM.
For `N=C(N)N[C@@H]1CCCCNC(=O)[C@H](CCCCN)NC(=O)[C@H](CCCCN)NC(=O)CNC(=O)CNC(=O)CNC1=O` [Inhibitor 25] (cyclo(GGGKK[dεLys(Nα-amidino)])) the same measures were 3.74 ± 0.2 nM, 129 ± 7 nM and 378 ± 27 nM.
As for `N=C(N)N[C@@H]1CCCCNC(=O)[C@H](CCCCN)NC(=O)[C@H](CCCCN)NC(=O)CCNC(=O)CNC(=O)CNC1=O` [Inhibitor 26] (cyclo(GG[βAla]KK[dεLys(Nα-amidino)])), the results for the Ki in assay [1] (setting [6]), in assay [2] (setting [7]) and in assay [3] (setting [8]) were 1.72 ± 0.03 nM, 68.6 ± 13.1 nM and 160 ± 5 nM, respectively.
The corresponding values for `N=C(N)N[C@@H]1CCCCNC(=O)[C@H](CCCCN)NC(=O)[C@H](CCCCN)NC(=O)CNC(=O)CCNC(=O)CNC1=O` [Inhibitor 27] (cyclo(G[βAla]GKK[dεLys(Nα-amidino)])) are 7.35 ± 0.39 nM, 468 ± 3 nM and 815 ± 79 nM.
